Assay results reported in ChEMBL document CHEMBL1158961, “Picrasinoside H, a new quassinoid glucoside, and related compounds from the stem wood of Picrasma ailanthoides” (1991).

Tests used:
Format in all cases: functional
Settings in all cases: read-out: ED50 (the source's name)
P388 = experiment: Cytotoxicity against mouse P388 cells
A549 = experiment: Cytotoxicity against human A549 cells
HCT-8 = experiment: Cytotoxicity against human HCT8 cells
KB = experiment: Cytotoxicity against human KB cells
TE-671 = experiment: Cytotoxicity against human TE671 cells
[1] = Cytotoxicity against human RPMI cells

Measured: EC50

COC1=C[C@@H](C)[C@@H]2C[C@H]3O[C@@H](O[C@@H]4O[C@H](CO)[C@@H](O)[C@H](O)[C@H]4O)C[C@H]4C(C)=C(OC)C(=O)[C@H]([C@@]2(C)C1=O)[C@@]34C [PICRASINOSIDE B]
≤ 4 µg/mL: all assays above

COC1=C[C@@H](C)C2C[C@H]3O[C@@H](O[C@@H]4O[C@H](CO)[C@@H](O)[C@H](O)[C@H]4O)C[C@H]4[C@@H](C)[C@@H]5OCO[C@H]5[C@@H]([C@@]34C)[C@@]2(C)C1=O (stereo not given in full) [PICRASINOSIDE C]
≤ 4 µg/mL: all assays above

COC1=C[C@@H](C)[C@@H]2C[C@H]3O[C@@H](O[C@@H]4O[C@H](CO)[C@@H](O)[C@H](O)[C@H]4O)C[C@H]4[C@@H](C)[C@H](OC)[C@@H](OC(C)=O)[C@H]([C@@]2(C)C1=O)[C@@]34C [PICRASINOSIDE D]
≤ 4 µg/mL: all assays above

COC1=C[C@@H](C)[C@@H]2C[C@H]3O[C@@H](O[C@@H]4O[C@H](CO)[C@@H](O)[C@H](O)[C@H]4O)C[C@H]4[C@](C)(O)[C@H](OC)[C@@H](OC(C)=O)[C@H]([C@@]2(C)C1=O)[C@@]34C [PICRASINOSIDE E]
≤ 4 µg/mL: all assays above

COC1=C[C@@H](C)[C@@H]2C[C@H]3O[C@@H](O[C@@H]4O[C@H](CO)[C@@H](O)[C@H](O)[C@H]4O)C[C@H]4[C@](C)(O)[C@H](OC)[C@@H](O)[C@H]([C@@]2(C)C1=O)[C@@]34C [PICRASINOSIDE G]
not listed: TE-671
≤ 4 µg/mL: all other assays above

COC1=C[C@@H](C)[C@@H]2C[C@H]3O[C@@H](O[C@@H]4O[C@H](CO)[C@@H](O)[C@H](O)[C@H]4O)C[C@H]4[C@](C)(OC(C)=O)[C@@H]5OCO[C@H]5[C@H]([C@@]2(C)C1=O)[C@@]34C [PICRASINOSIDE H]
≤ 4 µg/mL: all assays above
